# Measurements taken from PMC10813753 (Biology, 2024).
# Where “and” joins values, the source holds several entries; their conditions need not be identical. Identical values can stand only once.
# How the values were obtained:
# ds17 duplex DNA = experiment: Equilibrium dialysis (non-competition and competition), ds17; assay type: binding; details: for Kapp (ds17): 10 mM potassium phosphate, 100 mM KCl, pH 7.2
# Experimental: Equilibrium dialysis experiments were conducted with unlabeled quadruplex DNA and/or with dsDNA sequences as previously reported. G4 sequence Tel22 is 5′-A(GGGTTA)3GGG-3′, and ds17 is 5′-GGG TTA CTA CGA ACT GG-3′/5′-CCA GTT CGT AGT AAC CC-3′. The buffering system employed contained 10 mM potassium phosphate buffer and 100 mM of KCl (pH = 7.2). DNA solution concentrations were determined at 90 °C through UV-visible spectrophotometry using the λmax values and extinction coefficients provided by IDT®. Extinction coefficients of TSC ligand 1 were calculated in water and in buffer in the absence and in the presence of 1% (w/v) triton X-100. Competition and non-competition dialysis experiments were carried out using the protocol described by Chaires, with minor modifications. Dialysis bags (Biotech Regenerated Cellulose (RC) membrane, part number 133192, Spectrum Laboratories, Inc., Fisher, Madrid, Spain) with a 0.2 mL volume were used, with G4 Tel22 or duplex ds17 DNA at a concentration of 75 μM, in monomeric units. The dialysis bags were placed in a beaker containing 200 mL of a solution of compound 1 (2 μM) in buffer. The beaker was sealed with Parafilm, and the solution was allowed to equilibrate at room temperature (22 °C) for 24 h with continuous stirring. […] After 2 h equilibration at room temperature, the total concentration of the ligand (Ct) was determined using UV-visible spectroscopy. The concentration of free compound 1 (Cf) was also determined spectrophotometrically from the dialysate solution. The concentration of the DNA-bound compound (Cb) was then calculated using the equation Cb = Ct − Cf, and Kapp was determined.
# Assays were performed at room temperature with ~2 μM solutions of 1, equilibrated with 75 μM (in monomeric units, tetrads or base pairs, respectively) of the tested DNA sequence for 24 h, in a buffer containing 100 mM KCl. […] The concentration of DNA-bound ligand was determined based on at least two different experiments performed in duplicate or triplicate. […]
# [1] = test system: RWPE-1 cells (healthy prostate); experiment: MTT viability assay RWPE-1; assay type: cell-based, human; details: 72 h
# Experimental: (§1) A panel of five tumor cell lines and two normal cell lines was used to preliminarily test the cytotoxicity of compounds 1–4, and the experiments were conducted as previously reported. All human cell lines were acquired from American Type Culture Collection (ATCC): tumor PC-3 and DU145 (prostate), HeLa (cervix), MCF7 (breast) and HT29 (colorectal) and healthy HFF-1 (fibroblast) and RWPE-1 (prostate). The cell catalogue reference and culture media used in the experiments were CRL-1435^TM, RPMI (PC-3), HTB-81™, RPMI (DU145), CCL-2^TM, DMEM (HeLa), HTB-22^TM, DMEM (MCF-7), HTB-38^TM, modified McCoy’s 5a medium, Catalogue No. 30-2007 (HT29), SCRC-1041^TM, DMEM (HFF-1) and CRL-11609^TM, Keratinocyte-SFM (RWPE-1). Culture media were purchased from Merck: RPMI-1640, DMEM + 10% FBS (Fetal Bovine Serum) + […] (penicillin/streptomycin/amphotericin B). Media and supplements for RWPE-1 were from ThermoFisher (17005075, Madrid, Spain). MCF7 cells were additionally supplemented with insulin (0.001 mg/mL in 500 mL media). Cells were kept at 37 °C (5% CO2), and culture media were renewed three times per week. When the cells reached 80–100% confluence, they were trypsinized and centrifuged, and the concentration was adjusted to each experiment. Cells were seeded at a density of ~10,000 cells/well into 24-well plates. The cells were treated with ligands 1–4 or the cytotoxic agents PhenQE8, PhenDC3 or cisplatin at different concentrations (10 nM–100 μM). Compound solutions were freshly prepared using the appropriate culture medium. Triplicate experiments were run. For MTT viability assays, after 72 h incubation, 50 μL of MTT (5 mg/mL) was added, and an additional incubation of 4 h was allowed. The medium in each well was then replaced by DMSO, and the absorbance was measured at 570 nm using an ELISA plate reader. Absorbances were normalized using negative controls (untreated cells, in triplicate, with a maximum of 0.9% DMSO content). Dose–response curves were obtained by plotting the percentage of viable cells versus logarithmic compound concentration. IC50 values were determined using Kaleidagragh^TM (3.52) software by adjusting the data to Equation 1/(1 + 10^(m2*(log(m1) − x))); m1 = 0.000003; m2 = 1.
# HeLa cells (cervix) = experiment: MTT viability assay HeLa; assay type: cell-based, human; details: 72 h
# Experimental: as §1
# MCF-7 cells (breast) = experiment: MTT viability assay MCF-7; assay type: cell-based, human; details: 72 h
# Experimental: as §1
# HT29 cells (colorectal) = experiment: MTT viability assay HT29; assay type: cell-based, human; details: 72 h
# Experimental: as §1, with “Dose–response curves were obtained by plotting the percentage of viable cells versus logarithmic compound concentration.” left out
# HeLa cells = experiment: Annexin V/PI FITC apoptosis assay, HeLa; assay type: cell-based, human; details: 20 μM, 48 h, in comparison to untreated cells
# Experimental: For the Annexin V apoptosis experiments, approximately half of the cells used in combined experiments with cell cycle analysis were harvested via trypsinization, PBS washed and stained with the Annexin-V FITC & PI kit (Invitrogen^TM ref. V 13242, Thermo Fisher, Madrid, Spain) following a standard protocol. A total of 10,000 events were recorded, and the results obtained by flow cytometry were represented as dot plots.
substance,measurement,setting,value
"2,2′-(1,10-Phenanthroline-2,9-diyl)-bis(methylene)-bis(hydrazine-1-carbothioamide) [compound 1]",Kapp (ds17),ds17 duplex DNA; competition dialysis (1 + Tel22 + ds17),0.05 ± 0.01 (M^−1) × 10^−5
same,Kapp (ds17),ds17 duplex DNA; non-competition dialysis (1 + ds17),0.06 ± 0.01 (M^−1) × 10^−5
same,apparent association constant to dsDNA ds17,"ds17 duplex DNA; order of magnitude, equilibrium dialysis",~10^3 M^−1 and ~ 5 × 10^3 M^−1
same,IC50,[1],90.8 ± 8.8 µM
same,IC50,HeLa cells (cervix),~100 µM
same,IC50,MCF-7 cells (breast),78.4 ± 11 µM
same,IC50,HT29 cells (colorectal),> 100 µM
same,increase in the number of early apoptotic and late apoptotic cells,HeLa cells,20–25%
